Columns and labels:
[1] = system: enone reductase; test: Activity of bacterial cell extract of E. coli HB101 (pSE-KLR1) expressing recombinant enone reductase to various substrates; type: biochemical, Kluyveromyces lactis; settings: for Relative activity: methyl vinyl ketone = 100
Experimental: (§1) A reaction mixture containing 50 mM potassium phosphate buffer (pH 6.5), 0.2 mM NADPH, 20 mM methyl vinyl ketone, and the enzyme is reacted at 30° C., and the decrease in absorbance at 340 nm, which is associated with the decrease of the amount of NADPH, is measured. 1 U is defined as the amount of enzyme catalyzing a decrease of 1 μmol NADPH in one minute. Quantitative analysis of the polypeptide is conducted by pigment binding methods using the protein assay kit (Bio-Rad Laboratories Inc.).
E. coli HB101 strain, transformed with plasmid pSE-KLR1 expressing the enone reductase, was cultured overnight in liquid LB medium containing ampicillin at 30° C. 0.1 mM IPTG was added to the culture, and then, was further cultured for 4 hours.
(§2) The bacterial cells were harvested by centrifugation, and then, were suspended in 50 mM potassium phosphate buffer (pH8.0) containing 0.02% 2-mercaptoethanol, 2mM PMSF, and 10% glycerin. The cells were treated in a closed-chamber sonicator UCD-200TM (Cosmo Bio) for 3 minutes to crush the cells. The bacterial cell lysate was centrifuged and the supernatant was recovered as bacterial cell extract. The extract was assayed for activities to various types of substrates. In addition, E. coli HB 101 strain without the plasmid was cultured overnight in LB culture medium. 0.1 mM IPTG was added to the culture, and then, was further cultured for 4 hours. The bacterial cells were crushed by the same method as above, and the extract was assayed for the activities to various types of substrates.

[2] = system: E. coli HB 101 strain without the plasmid; test: Activity of bacterial cell extract of host only (E. coli HB101 without the plasmid) to various substrates; type: biochemical
Experimental: as §1, §2

[3] = system: enone reductase; test: Substrate specificity of purified enone reductase; type: biochemical, Kluyveromyces lactis; settings: enzyme obtained in Example 1
Experimental: as §1, with “[…],” for “0.2 mM NADPH,”
The enzyme obtained in Example 1 was reacted with various enones, ketones, and aldehydes, and the dehydrogenation activity was assayed. The result was represented by a relative activity, taking the dehydrogenation activity of the enzyme on methyl vinyl ketone as 100, and the results are shown in Table 2.

[4] = Enone reductase activity of cell-free extracts of E. coli JM109 expressing the homologues YNN4, YL60, YCZ2; type: biochemical; settings: E. coli JM109 with pSE-YNN4, pSE-YL60 or pSE-YCZ2; 0.1 mM IPTG, 4 hours
Experimental: as §1
E. coli JM109 strains, each containing pSE-YNN4, pSE-YL60 or pSE-YCZ2, were cultured in LB culture medium containing ampicillin. The induction of the enzyme was achieved by adding 0.1 mM IPTG and culturing for 4 hours. The bacterial cells were harvested by centrifugation. Respective bacterial cells were suspended in cell lysis buffer (50 mM KPB (pH 8.0), 1 mM EDTA, 0.02% 2-ME, 2 mM PMSF, and 10% glycerol); and the cells were lysed in a sonicator. The supernatant prepared by centrifugation was used as the cell-free extract.
Each of the cell-free extract was assayed for the enone reductase activity. […] Thus, it was verified that all of the three types of homologues of the enzyme of the present invention had the requisite enone reductase activity.

[5] = Methyl vinyl ketone-reducing activity of the purified enzyme (specific activity, pH and temperature dependency); type: biochemical; settings: after Phenyl-Superose, NADPH
Experimental: as §1
Specific activity of the purified enzyme was about 31.7 U/mg.
The methyl vinyl ketone-reducing activity of the enzyme obtained in Example 1 was tested, by altering the pH of the reaction with potassium phosphate buffer and Britton Robinson buffer. The optimal pH for the reaction was determined to be 6.5 to 7.0.
The methyl vinyl ketone-reducing activity of the enzyme obtained in Example 1 was assayed under standard reaction conditions, with the exception that only the temperatures were altered. The optimal temperature was 37 to 45° C.

[6] = coenzyme NADH, activity on methyl vinyl ketone (NADPH) taken as 100
[7] = coenzyme NADPH, activity on methyl vinyl ketone taken as 100

## C=CC(=O)CC [Ethyl vinyl ketone]
[1]
  Specific activity: 41.8 U/mg
[2]
  Specific activity: 0.073 U/mg
[3]; [6]
  Relative activity: 52%
[3]; [7]
  Relative activity: 537%

## CCC(C)=O [2-butanone]
[3]; [7]
  Relative activity: 0%

## CC(=O)C=C(C)C [4-methyl-3-pentene-2-one]
[3]; [7]
  Relative activity: 1%

## CC(=O)c1ccccc1 [Acetophenone]
[3]; [7]
  Relative activity: 0%

## C/C=C/C(=O)O [Crotonic acid]
[3]; [7]
  Relative activity: 0%

## CC1=CC(=O)CC1 [3-methyl-2-cyclopenten-1-one]
[3]; [7]
  Relative activity: 0%

## CC=C(C)C(C)=O [3-methyl-3-pentene-2-one]
[1]
  Specific activity: 2.52 U/mg
  Relative activity: 32.4%
[2]
  Specific activity: 0.004 U/mg
[3]; [7]
  Relative activity: 48%

## CC1=CCCC1=O [2-methyl-2-cyclopenten-1-one]
[3]; [7]
  Relative activity: 0%

## CC(=O)C(C)=O [2,3-butanedione]
[3]; [7]
  Relative activity: 1%

## CC(=O)C=O [Methylglyoxal]
[3]; [7]
  Relative activity: 1%

## C=CC(C)=O [Methyl vinyl ketone]
[1]
  Specific activity: 7.78 U/mg
  Relative activity: 100%
[2]
  Specific activity: 0.066 U/mg
[3]; [6]
  Relative activity: 14%
[3]; [7]
  Relative activity: 100%

## CC=CC(C)=O [3-pentene-2-one]
[1]
  Specific activity: 1.23 U/mg
  Relative activity: 15.9%
[2]
  Specific activity: 0.015 U/mg
[3]; [7]
  Relative activity: 16%

B1: YNN4: Saccharomyces cerevisiae enone reductase homologue, SEQ ID NO:4, expressed in E. coli from pSE-YNN4 (protein)
chain: MSASIPETMKAVVIENGKAVVKQDIPIPELEEGFVLIKTVAVAGNPTDWKHIDFKIGPQGALLGCDAAGQIVKLGPNVDAARFAIGDYIYGVIHGASVRFPSNGAFAEYSAISSETAYKPAREFRLCGKDKLPEGPVKSLEGAVSLPVSLTTAGMILTHSFGLDMTWKPSKAQRDQPILFWGGATAVGQMLIQLAKKLNGFSKIIVVASRKHEKLLKEYGADELFDYHDADVIEQIKKKYNNIPYLVDCVSNTETIQQVYKCAADDLDATVVQLTVLTEKDIKEEDRRQNVSIEGTLLYLIGGNDVPFGTFTLPADPEYKEAAIKFIKFINPKINDGEIHHIPVKVYKNGLDDIPQLLDDIKHGRNSGEKLVAVLK
[4]
  Enone reductase activity of cell-free extract: 0.268 U/mg protein

B2: enzyme obtained in Example 1: NADPH-dependent enone reductase purified from Kluyveromyces lactis IFO 1267; amino acid sequence SEQ ID NO:2 (protein)
chain: MSVPTTQKAVIIEGDKAVVKTDVSVPELKEGTALVKVEAVAGNPTDWKHIAYKIGPEGSILGCDIAGTVVKLGPNASTDLKVGDTGFGFVHGASQTDPKNGAFAEYARVYPPLFYKSNLTHSTADEISEGPVKNFESAASLPVSLTTAGVSLCHHLGSKMEWHPSTPQHTHPLLIWGGATAVGQQLIQVAKHINAYTKIVTVASKKHEKLLKSYGADDVFDYHDAGVIEQIKSKYPNLQHVIDAVGSEDSIPEAYKVTADSLPATLLEVVPMTIESIPEEIRKDNVKIDITLLYRASGQEILLGATRFPASPEYHEATVKFVKFINPHLNNGDIHHMNIKVFSNGLDDVPALTEGIKEGKNKNVKYVARL
[5]
  Specific activity of the purified enzyme: about 31.7 U/mg

B3: YL60: Saccharomyces cerevisiae enone reductase homologue, SEQ ID NO:6, expressed in E. coli from pSE-YL60 (protein)
chain: MAQVAIPETMKAVVIEDGKAVVKEGIPIPELEEGFVLIKTLAVAGNPTDWAHIDYKIGPQGSILGCDAAGQIVKLGPAVNPKDFSIGDYIYGFIHGSSVRFPSNGAFAEYSAISTVVAYKSPNELKFLGEDVLPAGPVRSLEGVATIPVSLTTAGLVLTYNLGLDLKWEPSTPQRKGPILLWGGATAVGQSLIQLANKLNGFTKIIVVASRKHEKLLKEYGADELFDYHDIDVVEQIKHKYNNISYLVDCVANQDTLQQVYKCAADKQDATIVELKNLTEENVKKENRRQNVTIDIIRLYSIGGHEVPFGNITLPADSEARKAAIKFIKFINPKINDGQIRHIPVRVYKNGLCDVPHILKDIKYGKNSGEKLVAVLN
[4]
  Enone reductase activity of cell-free extract: 0.198 U/mg protein

B4: YCZ2: Saccharomyces cerevisiae enone reductase homologue, SEQ ID NO:8, expressed in E. coli from pSE-YCZ2 (protein)
chain: MKAVVIEDGKAVVKEGVPIPELEEGFVLIKTLAVAGNPTDWAHIDYKVGPQGSILGCDAAGQIVKLGPAVDPKDFSIGDYIYGFIHGSSVRFPSNGAFAEYSAISTVVAYKSPNELKFLGEDVLPAGPVRSLEGAATIPVSLTTAGLVLTYNLGLNLKWEPSTPQRNGPILLWGGATAVGQSLIQLANKLNGFTKIIVVASRKHEKLLKEYGADQLFDYHDIDVVEQIKHKYNNISYLVDCVANQNTLQQVYKCAADKQDATVVELTNLTEENVKKENRRQNVTIDRTRLYSIGGHEVPFGGITFPADPEARRAATEFVKFINPKISDGQIHHIPARVYKNGLYDVPRILEDIKIGKNSGEKLVAVLN
[4]
  Enone reductase activity of cell-free extract: 0.133 U/mg protein

Reference: patent US6780976B2, “Enone reductases, methods for producing same, and methods for selectively reducing a carbon-carbon double bond of an alpha,beta-unsaturated ketone using the reductases” (Daicel Chemical Industries, Ltd., priority 2001, dated 2004)
